This assay deals with T1, SIRT1 (Homo sapiens, UniProt Q96EB6).
T1 sequence (Q96EB6 1-747): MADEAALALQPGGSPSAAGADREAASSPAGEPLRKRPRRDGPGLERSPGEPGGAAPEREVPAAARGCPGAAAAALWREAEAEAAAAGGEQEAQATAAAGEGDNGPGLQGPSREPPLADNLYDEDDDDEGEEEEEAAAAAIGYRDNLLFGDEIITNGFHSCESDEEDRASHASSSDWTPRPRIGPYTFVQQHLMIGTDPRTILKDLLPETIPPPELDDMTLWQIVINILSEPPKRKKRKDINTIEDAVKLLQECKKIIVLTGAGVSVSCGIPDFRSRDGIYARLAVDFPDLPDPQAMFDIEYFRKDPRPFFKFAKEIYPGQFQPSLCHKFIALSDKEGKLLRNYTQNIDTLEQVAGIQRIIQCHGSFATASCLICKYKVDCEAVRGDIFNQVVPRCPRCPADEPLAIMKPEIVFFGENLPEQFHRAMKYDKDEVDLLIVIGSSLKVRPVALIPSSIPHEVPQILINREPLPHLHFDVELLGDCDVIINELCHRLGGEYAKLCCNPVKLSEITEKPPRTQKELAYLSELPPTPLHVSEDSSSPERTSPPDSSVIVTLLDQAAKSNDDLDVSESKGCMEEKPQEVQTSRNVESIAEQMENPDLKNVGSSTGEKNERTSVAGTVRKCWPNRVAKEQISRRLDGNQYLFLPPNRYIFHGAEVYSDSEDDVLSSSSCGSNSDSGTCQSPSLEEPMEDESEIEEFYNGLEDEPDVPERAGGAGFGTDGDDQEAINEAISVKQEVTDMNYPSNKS
The experiment in a line: Trp mass spectrometry assay (SIRT1 activation). Type of assay: biochemical. The conditions noted are these: Trp peptide substrate; for Tryp AVG EC1.5 (μM): concentration of test compound that results in 150% activation of SIRT1; for Emax: percent maximum fold activation of SIRT1, read-out: Tryp % Fold Act. The method, boiled down:
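Activation is expressed as EC1.5, the concentration raising activity 50% above DMSO control, and as maximum percent of control. Mass-spec readout was OAADPR or deacetylated Trp peptide after a formic-acid-quenched 25-min, 25 °C reaction: 10 nM bacterially expressed His-SIRT1, 0.5 μM acetyl-p53-derived peptide, 120 μM NAD+, pH 7.5 HEPES with […].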

As to `COc1cc(NC(=O)N2c3nc(-c4cccc(Cl)c4)ccc3N3CCC2CC3)nc(OC)n1` [Example 523], the “Tryp AVG EC1.5 (μM)” value was “A (EC1.5<1 μM)” and the Emax is not below 150%.
Take `Cn1nccc1-c1ccc2c(n1)N(C(=O)Nc1cccnc1)[C@H]1CCN2C1` [Example 524]: the “Tryp AVG EC1.5 (μM)” value is “B (EC1.5 1-25 μM)” and the Emax was not below 150%.
Regarding `Cc1n[nH]c(C)c1-c1ccc2c(n1)N(C(=O)Nc1cccnc1)[C@H]1CCN2C1` [Example 525], the “Tryp AVG EC1.5 (μM)” value is recorded as “B (EC1.5 1-25 μM)” and the Emax is not below 150%.
For `O=C(Nc1cccnc1)N1c2nc(-c3cncc(Cl)c3)ccc2N2CC[C@H]1C2` [Example 526], the “Tryp AVG EC1.5 (μM)” value is recorded as “A (EC1.5<1 μM)” and the Emax is not below 150%.
Regarding `COc1cc(NC(=O)N2c3nc(-c4cccc(N5CCOCC5)c4)ccc3N3CCC[C@H]2C3)ncn1` [Example 528], the “Tryp AVG EC1.5 (μM)” value is “B (EC1.5 1-25 μM)” and the Emax is not below 150%.
Take `O=C(Nc1ccncn1)N1c2nc(-c3cccc(N4CCOCC4)c3)ccc2N2CCC[C@H]1C2` [Example 529]: the “Tryp AVG EC1.5 (μM)” value is listed as “B (EC1.5 1-25 μM)” and the Emax is not below 150%.
The corresponding values for `O=C1C=CC2=C(c3ccc(NC(=S)NCc4ccc(NC(=O)N5c6nc(-c7cccc(C(F)(F)F)c7)ccc6N6CC[C@H]5C6)cc4)cc3C(=O)O)C3C=CC(O)=CC3OC2=C1` (stereo partly drawn) [Example 530] are “A (EC1.5<1 μM)” and not below 150%.
`Cc1c(-c2ccc3c(n2)N(C(=O)Nc2ccccn2)[C@H]2CCN3C2)cnn1C` [Example 531]: the “Tryp AVG EC1.5 (μM)” value is “B (EC1.5 1-25 μM)” and the Emax is not below 150%.
Take `Cc1c(-c2ccc3c(n2)N(C(=O)Nc2cnccn2)[C@H]2CCN3C2)cnn1C` [Example 532]: the “Tryp AVG EC1.5 (μM)” value is listed as “B (EC1.5 1-25 μM)” and the Emax is not below 150%.
Turning to `O=C(Nc1ccccn1)N1c2nc(-c3cccc(Cl)c3)ccc2N2CCC1CC2` [Example 533], the “Tryp AVG EC1.5 (μM)” value was “B (EC1.5 1-25 μM)” and the Emax was not below 150%.
For `O=C(Nc1ccncn1)N1c2nc(-c3cccc(Cl)c3)ccc2N2CCC1CC2` [Example 534], the “Tryp AVG EC1.5 (μM)” value is given as “B (EC1.5 1-25 μM)” and the Emax is not below 150%.
In the case of `N#Cc1cncc(-c2ccc3c(n2)N(C(=O)Nc2cncc(F)c2)[C@H]2CCCN3C2)c1` [Example 535], the “Tryp AVG EC1.5 (μM)” value is “B (EC1.5 1-25 μM)” and the Emax was not below 150%.
In the case of `O=C(Nc1ccccn1)N1c2nc(-c3cccc(N4CCOCC4)c3)ccc2N2CCC[C@H]1C2` [Example 536], the “Tryp AVG EC1.5 (μM)” value is recorded as “B (EC1.5 1-25 μM)” and the Emax was not below 150%.
`Cc1nc(NC(=O)N2c3nc(-c4cccc(N5CCOCC5)c4)ccc3N3CCC[C@H]2C3)sc1C` [Example 537]: the “Tryp AVG EC1.5 (μM)” value is given as “B (EC1.5 1-25 μM)” and the Emax was not below 150%.
As for `O=C(Nc1cccnc1)N1c2nc(-c3cccc(N4CCOCC4)c3)ccc2N2CCC[C@H]1C2` [Example 538], the “Tryp AVG EC1.5 (μM)” value is “A (EC1.5<1 μM)” and the Emax was not below 150%.
For the compound `O=C(Nc1cccnn1)N1c2nc(-c3cccc(N4CCOCC4)c3)ccc2N2CCC[C@H]1C2` [Example 539], the “Tryp AVG EC1.5 (μM)” value is “B (EC1.5 1-25 μM)” and the Emax was not below 150%.
Take `Cc1cc(NC(=O)N2c3nc(-c4cccc(C(F)(F)F)c4)ccc3N3CC[C@H]2C3)cc(Br)n1` [Example 540]: the “Tryp AVG EC1.5 (μM)” value is recorded as “A (EC1.5<1 μM)” and the Emax is not below 150%.
As to `O=C(Nc1ccnc(Br)c1)N1c2nc(-c3cccc(C(F)(F)F)c3)ccc2N2CC[C@H]1C2` [Example 541], the “Tryp AVG EC1.5 (μM)” value is “A (EC1.5<1 μM)” and the Emax is not below 150%.
In the same order, the values of `O=C(Nc1cncc(Br)c1)N1c2nc(-c3cccc(C(F)(F)F)c3)ccc2N2CC[C@H]1C2` [Example 542] are “A (EC1.5<1 μM)” and not below 150%.
In the same order, the values of `O=C(Nc1cnccn1)N1c2nc(-c3cccc(Cl)c3)ccc2N2CCC1CC2` [Example 543] are “B (EC1.5 1-25 μM)” and not below 150%.
The corresponding values for `O=C(Nc1cccnc1)N1c2nc(-c3cncc(Cl)c3)ccc2N2CCC1CC2` [Example 544] are “B (EC1.5 1-25 μM)” and not below 150%.
Regarding `O=C(Nc1cncc(F)c1)N1c2nc(-c3cncc(Cl)c3)ccc2N2CCC1CC2` [Example 545], the “Tryp AVG EC1.5 (μM)” value is given as “B (EC1.5 1-25 μM)” and the Emax is not below 150%.
Take `O=C(CCCCCNC(=O)c1ccc(-c2c3ccc(=O)cc-3oc3cc(O)ccc23)c(C(=O)O)c1)NCc1ccc(NC(=O)N2c3nc(-c4cccc(C(F)(F)F)c4)ccc3N3CC[C@H]2C3)cc1` [Example 547]: the “Tryp AVG EC1.5 (μM)” value was “C (EC1.5>25 μM)” and the Emax is less than 150%.
As to `CC1(CCC(=O)NCc2ccc(NC(=O)N3c4nc(-c5cccc(C(F)(F)F)c5)ccc4N4CC[C@H]3C4)cc2)N=N1` [Example 548], the “Tryp AVG EC1.5 (μM)” value was “B (EC1.5 1-25 μM)” and the Emax is not below 150%.
`O=C(Nc1cccnc1)N1c2nc(-c3cnn(-c4ccccc4)c3)ccc2N2CC[C@H]1C2` [Example 549]: the “Tryp AVG EC1.5 (μM)” value is “B (EC1.5 1-25 μM)” and the Emax is not below 150%.
Regarding `O=C(Nc1cnccn1)N1c2nc(-c3cncc(Cl)c3)ccc2N2CCC1CC2` [Example 550], the “Tryp AVG EC1.5 (μM)” value is “B (EC1.5 1-25 μM)” and the Emax was not below 150%.
The corresponding values for `O=C(Nc1ccccn1)N1c2nc(-c3cncc(Cl)c3)ccc2N2CCC1CC2` [Example 551] are “B (EC1.5 1-25 μM)” and not below 150%.
Regarding `COc1cc(NC(=O)N2c3nc(-c4cncc(Cl)c4)ccc3N3CCC2CC3)ncn1` [Example 552], the “Tryp AVG EC1.5 (μM)” value is given as “C (EC1.5>25 μM)” and the Emax was less than 150%.
In the case of `COc1cc(NC(=O)N2c3nc(-c4cncc(Cl)c4)ccc3N3CCC2CC3)nc(OC)n1` [Example 553], the “Tryp AVG EC1.5 (μM)” value is reported as “B (EC1.5 1-25 μM)” and the Emax is not below 150%.
The corresponding values for `Cc1nc(NC(=O)N2c3nc(-c4cncc(Cl)c4)ccc3N3CCC2CC3)sc1C` [Example 554] are “B (EC1.5 1-25 μM)” and not below 150%.
Take `O=C(Nc1cnccn1)N1c2nc(-c3cncc(F)c3)ccc2N2CCC1CC2` [Example 555]: the “Tryp AVG EC1.5 (μM)” value is “B (EC1.5 1-25 μM)” and the Emax is not below 150%.
Consider `O=C(Nc1cccnc1)N1c2nc(-c3cncc(C(F)(F)F)c3)ccc2N2CC[C@H]1C2` [Example 556], for which the “Tryp AVG EC1.5 (μM)” value was “A (EC1.5<1 μM)” and the Emax is not below 150%.
As to `N#Cc1cncc(-c2ccc3c(n2)N(C(=O)Nc2ccccn2)[C@H]2CCCN3C2)c1` [Example 557], the “Tryp AVG EC1.5 (μM)” value is “A (EC1.5<1 μM)” and the Emax was not below 150%.
In the case of `N#Cc1cncc(-c2ccc3c(n2)N(C(=O)Nc2ccncn2)[C@H]2CCCN3C2)c1` [Example 558], the “Tryp AVG EC1.5 (μM)” value is “B (EC1.5 1-25 μM)” and the Emax was not below 150%.
Turning to `O=C(Nc1cncc(F)c1)N1c2nc(-c3cccc(N4CCOCC4)c3)ccc2N2CCC[C@H]1C2` [Example 559], the “Tryp AVG EC1.5 (μM)” value is given as “A (EC1.5<1 μM)” and the Emax was not below 150%.
In the same order, the values of `O=C(Nc1cnccn1)N1c2nc(-c3cccc(N4CCOCC4)c3)ccc2N2CCC[C@H]1C2` [Example 560] are “B (EC1.5 1-25 μM)” and not below 150%.
Regarding `Cc1cc(-c2ccc3c(n2)N(C(=O)Nc2cnc(OC[C@@H](O)CO)cn2)[C@H]2CCN3C2)ccn1` [Example 561], the “Tryp AVG EC1.5 (μM)” value is given as “B (EC1.5 1-25 μM)” and the Emax is not below 150%.
The corresponding values for `O=C(Nc1cc(Br)cc(-c2cnco2)c1)N1c2nc(-c3cccc(C(F)(F)F)c3)ccc2N2CC[C@H]1C2` [Example 562] are “A (EC1.5<1 μM)” and not below 150%.
On to `O=C(O)c1cc(NC(=S)NCc2ccc(NC(=O)N3c4nc(-c5cccc(C(F)(F)F)c5)ccc4N4CCC[C@H]3C4)cc2)ccc1-c1c2ccc(=O)cc-2oc2cc(O)ccc12` [Example 563], for which the “Tryp AVG EC1.5 (μM)” value is recorded as “A (EC1.5<1 μM)” and the Emax is not below 150%.
On to `Cc1nc(NC(=O)N2c3nc(-c4cccc(Cl)c4)ccc3N3CCC2CC3)sc1C` [Example 569], for which the “Tryp AVG EC1.5 (μM)” value is reported as “B (EC1.5 1-25 μM)” and the Emax was not below 150%.
Regarding `O=C(Nc1ccccn1)N1c2nc(-c3cncc(F)c3)ccc2N2CCC1CC2` [Example 570], the “Tryp AVG EC1.5 (μM)” value was “B (EC1.5 1-25 μM)” and the Emax is not below 150%.
As for `O=C(Nc1cncc(F)c1)N1c2nc(-c3cncc(F)c3)ccc2N2CCC1CC2` [Example 571], the “Tryp AVG EC1.5 (μM)” value is reported as “B (EC1.5 1-25 μM)” and the Emax is not below 150%.

For the origin of these results see patent US9765075B2, “Substituted bridged urea analogs as sirtuin modulators” (GLAXOSMITHKLINE LLC, priority 2013, dated 2017).
